Measurements published in ChEMBL document CHEMBL1201862, “PubChem BioAssay data set” (2004).
Active and inactive are the calls of the source.

How the values were obtained:
cells [1] = type: functional, cell-based
cells [2] = type: functional, cell-based; remark: listed apart in the source
HeLa = assay: viability loss in HeLa cells – cell-based, 24 h, cherry-picked samples, cytotoxicity control, dose response (AID 504726); type: functional; conditions: Homo sapiens;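 note: potency for cytotoxicity as loss of luminescence signal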
Salmon testes DNA = assay: acridine orange-DNA binding displacement – biochemical, fluorescence polarization, cherry-picked samples, set 2, artefact control for KSHV LANA DNA-binding inhibitor project, dose response (AID 504727); set-up: species or system Salmonidae
cells [3] = type: functional
[4] = target: T1, Tyrosine-protein phosphatase non-receptor type 7 (Homo sapiens, UniProt P35236); type: functional
T1 sequence (P35236 whole entry): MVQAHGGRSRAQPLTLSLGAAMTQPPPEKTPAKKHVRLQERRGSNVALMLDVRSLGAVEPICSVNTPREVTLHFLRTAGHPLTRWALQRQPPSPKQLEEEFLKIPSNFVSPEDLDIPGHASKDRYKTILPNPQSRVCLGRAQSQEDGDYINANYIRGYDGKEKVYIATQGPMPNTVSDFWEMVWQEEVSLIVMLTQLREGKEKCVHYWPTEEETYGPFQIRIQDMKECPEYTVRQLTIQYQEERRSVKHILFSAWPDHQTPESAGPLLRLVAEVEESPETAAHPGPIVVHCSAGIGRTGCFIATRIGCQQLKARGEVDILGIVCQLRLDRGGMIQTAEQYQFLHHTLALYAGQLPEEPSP

Bcl-2-like protein 10 = target: T2, Bcl-2-like protein 10 (Homo sapiens, UniProt Q9HD36); assay: Bcl-B/TR3 peptide binding disruption – biochemical, fluorescence polarization, FITC-TR3 peptide, selectivity assay for Bfl-1 inhibitor project, primary screen (AID 748);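 note: fluorescence polarization from a fluorescein-labelled TR3 peptide binding purified Bcl-B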
T2 sequence (Q9HD36 whole entry): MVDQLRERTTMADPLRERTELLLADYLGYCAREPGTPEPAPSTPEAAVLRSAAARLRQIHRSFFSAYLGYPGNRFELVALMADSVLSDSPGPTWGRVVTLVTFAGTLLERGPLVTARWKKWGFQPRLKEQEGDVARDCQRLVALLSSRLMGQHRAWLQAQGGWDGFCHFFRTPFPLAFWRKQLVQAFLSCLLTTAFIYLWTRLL

[5] = target: Glyceraldehyde-3-phosphate dehydrogenase (Homo sapiens, UniProt P04406)
[6] = target: Heat shock cognate 71 kDa protein (Homo sapiens, UniProt P11142); assay: In Vitro Hsc70 Dose Response Fluorescence Polarization Assay. [Related pubchem assays: 1072 ]
Large T antigen = Large T antigen (Simian virus 40, UniProt P03070); type: functional, Betapolyomavirus macacae;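 note: Confirmatory-stage PubChem screen for compounds that inhibit SV40 T antigen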
[7] = target: T3, E3 ubiquitin-protein ligase XIAP (Homo sapiens, UniProt P98170); assay: Counter Screen using XIAP-Bir3 for Chemical Antagonists of Bir1/2 domains of IAP-family anti-apoptotic proteins. [Related pubchem assays (depositor defined):AID1018, AID1449, AID1514, AID1638, AID1749, AID1750, AID488957, AID488963]
T3 sequence (P98170 whole entry): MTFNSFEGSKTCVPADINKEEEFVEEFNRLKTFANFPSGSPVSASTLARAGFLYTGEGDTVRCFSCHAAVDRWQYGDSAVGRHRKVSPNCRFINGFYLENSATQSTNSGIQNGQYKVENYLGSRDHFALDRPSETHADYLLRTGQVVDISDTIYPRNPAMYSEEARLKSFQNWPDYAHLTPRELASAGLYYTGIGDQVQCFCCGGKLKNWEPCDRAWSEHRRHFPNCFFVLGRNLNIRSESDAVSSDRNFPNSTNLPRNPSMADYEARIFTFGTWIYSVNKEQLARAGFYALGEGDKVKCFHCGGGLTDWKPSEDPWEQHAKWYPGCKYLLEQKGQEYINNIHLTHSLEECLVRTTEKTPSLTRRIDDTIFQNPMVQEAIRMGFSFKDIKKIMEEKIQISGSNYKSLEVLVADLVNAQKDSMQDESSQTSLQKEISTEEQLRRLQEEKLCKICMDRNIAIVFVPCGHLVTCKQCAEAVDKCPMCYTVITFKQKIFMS

[8] = target: T3, E3 ubiquitin-protein ligase XIAP; assay: small molecules displacing peptide from XIAP – biochemical, IAP family, fluorescence polarization (AID 1018); type: functional
[9] = target: Heat shock 70 kDa protein 1A (Homo sapiens, UniProt P0DMV8); assay: inhibition of Hsp70 binding activity – biochemical, fluorescence polarization, SAR follow-up (AID 1072)
[10] = target: T4, Dual specificity protein phosphatase 6 (Rattus norvegicus, UniProt Q64346)
T4 sequence (Q64346 whole entry): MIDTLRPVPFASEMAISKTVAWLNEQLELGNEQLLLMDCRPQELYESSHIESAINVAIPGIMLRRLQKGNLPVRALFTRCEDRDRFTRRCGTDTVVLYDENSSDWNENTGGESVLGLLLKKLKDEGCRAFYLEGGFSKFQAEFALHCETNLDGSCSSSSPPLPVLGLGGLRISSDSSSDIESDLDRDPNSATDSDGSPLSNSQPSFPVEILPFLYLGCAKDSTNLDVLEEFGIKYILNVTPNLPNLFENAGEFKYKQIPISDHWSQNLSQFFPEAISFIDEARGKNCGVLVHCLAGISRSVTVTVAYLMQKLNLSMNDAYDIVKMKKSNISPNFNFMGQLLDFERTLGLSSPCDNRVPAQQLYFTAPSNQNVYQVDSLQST

[11] = target: T4, Dual specificity protein phosphatase 6; assay: inhibition of rat DUSP6 enzyme activity – biochemical, in vitro, primary screen (AID 425)
[12] = target: Induced myeloid leukemia cell differentiation protein Mcl-1 (Homo sapiens, UniProt Q07820); type: functional
[13] = target: Eukaryotic translation initiation factor 4E (Mus musculus, UniProt P63073); assay: blockers of eIF4G binding by eIF4E – biochemical, TR-FRET, dose response (AID 855); type: functional;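 note: potency for disrupting eIF4E binding to eIF4GI seen as loss of FRET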
[14] = target: T4, Dual specificity protein phosphatase 6; type: functional
[15] = target: Transitional endoplasmic reticulum ATPase (Homo sapiens, UniProt P55072, C522A); assay: Luminescence counterscreen assay for p97 inhibitors: dose response biochemical high throughput screening assay to identify inhibitors of the C522A mutant p97 ATPase: synthesized compounds. [Related pubchem assays: 1481, 1517, 1551 ]
Chain of Transitional endoplasmic reticulum ATPase (Homo sapiens, UniProt P55072, C522A) (P55072 2-806 C522A limits assumed): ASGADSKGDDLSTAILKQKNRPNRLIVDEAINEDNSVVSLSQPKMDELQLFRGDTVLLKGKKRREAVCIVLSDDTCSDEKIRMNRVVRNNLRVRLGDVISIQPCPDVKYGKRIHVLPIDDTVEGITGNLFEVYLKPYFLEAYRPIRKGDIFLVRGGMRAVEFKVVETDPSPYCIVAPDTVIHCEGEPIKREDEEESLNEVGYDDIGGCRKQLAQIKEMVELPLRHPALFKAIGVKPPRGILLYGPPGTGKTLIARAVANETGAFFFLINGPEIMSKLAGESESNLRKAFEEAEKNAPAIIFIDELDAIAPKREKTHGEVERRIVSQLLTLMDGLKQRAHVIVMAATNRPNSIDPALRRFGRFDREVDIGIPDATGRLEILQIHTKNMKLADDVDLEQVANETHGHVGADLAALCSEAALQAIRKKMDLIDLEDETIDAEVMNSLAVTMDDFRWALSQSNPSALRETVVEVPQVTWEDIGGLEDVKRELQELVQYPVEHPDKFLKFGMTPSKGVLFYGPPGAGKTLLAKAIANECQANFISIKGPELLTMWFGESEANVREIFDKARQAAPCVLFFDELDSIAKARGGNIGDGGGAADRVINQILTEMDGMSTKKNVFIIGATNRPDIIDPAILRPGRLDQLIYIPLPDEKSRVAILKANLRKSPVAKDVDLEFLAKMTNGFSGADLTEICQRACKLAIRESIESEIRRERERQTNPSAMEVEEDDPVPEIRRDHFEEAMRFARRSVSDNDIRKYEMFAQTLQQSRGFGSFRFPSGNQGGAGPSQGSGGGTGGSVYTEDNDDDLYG

[16] = target: Transitional endoplasmic reticulum ATPase (Homo sapiens, UniProt P55072); assay: Luminescence dose response biochemical high throughput screening assay for inhibitors of the p97 ATPase: synthesized compounds. [Related pubchem assays: 1481, 1517 ]
[17] = Luminescence Cell-Based Dose Retest to Confirm Inhibitors of Cancer Stem Cells. [Related pubchem assays (depositor defined):AID2717, AID2721]; type: functional; conditions: Homo sapiens
[18] = target: T5, Ubiquitin-conjugating enzyme E2 N (Homo sapiens, UniProt P61088); type: functional;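 note: Dose-response confirmation in a TR-FRET assay detecting UBC13-driven polyubiquitin chain formation, inhibition measured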
T5 sequence (P61088 whole entry): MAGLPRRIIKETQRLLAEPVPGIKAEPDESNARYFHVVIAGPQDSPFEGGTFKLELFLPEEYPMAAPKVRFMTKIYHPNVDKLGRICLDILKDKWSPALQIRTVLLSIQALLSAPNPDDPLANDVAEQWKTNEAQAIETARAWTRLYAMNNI

[19] = target: Neurotensin receptor type 1 (Homo sapiens, UniProt P30989); type: functional;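 note: Image-based confirmatory dose-response assay measuring agonist activity at NTR1; NTR1-expressing U2OS osteosarcoma cells imaged for beta-arrestin GFP spot formation; agonist potency where compounds increase beta-arrestin recruitment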
Neutrophil collagenase = Neutrophil collagenase (Homo sapiens, UniProt P22894); assay: potency against MMP13, MMP2, MMP3, MMP14 – biochemical, probe development, late stage results, selectivity assay for MMP13 inhibitor project, late-stage follow-up, panel member MMP-8 [IC50 Assay] (AID 2067)
Chain of Neutrophil collagenase (P22894 whole entry): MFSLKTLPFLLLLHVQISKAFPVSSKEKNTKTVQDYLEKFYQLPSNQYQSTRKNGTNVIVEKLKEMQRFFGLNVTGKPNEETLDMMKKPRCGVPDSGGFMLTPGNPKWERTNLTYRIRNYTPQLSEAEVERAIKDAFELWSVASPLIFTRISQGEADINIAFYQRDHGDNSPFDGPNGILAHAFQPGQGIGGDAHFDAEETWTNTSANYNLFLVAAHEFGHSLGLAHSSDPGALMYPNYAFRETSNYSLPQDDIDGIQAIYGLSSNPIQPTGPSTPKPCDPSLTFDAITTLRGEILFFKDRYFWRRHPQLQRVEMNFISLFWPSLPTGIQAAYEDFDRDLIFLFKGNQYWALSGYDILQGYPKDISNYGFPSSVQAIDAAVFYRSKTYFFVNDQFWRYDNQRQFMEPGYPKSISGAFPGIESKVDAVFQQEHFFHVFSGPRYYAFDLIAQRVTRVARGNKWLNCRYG

Collagenase 3 = Collagenase 3 (Homo sapiens, UniProt P45452); assay: potency against MMP13, MMP2, MMP3, MMP14 – biochemical, probe development, late stage results, selectivity assay for MMP13 inhibitor project, late-stage follow-up, panel member MMP-13 [IC50 Assay] (AID 2067)
Wee1-like protein kinase = Wee1-like protein kinase (Homo sapiens, UniProt P30291); assay: HeLa cell cycle G2/M accumulation – FACS, mechanism study for Wee1 degradation inhibitor project, late-stage follow-up, panel member Wee1 Degradation (AID 2088)
Chain of Wee1-like protein kinase (P30291 whole entry): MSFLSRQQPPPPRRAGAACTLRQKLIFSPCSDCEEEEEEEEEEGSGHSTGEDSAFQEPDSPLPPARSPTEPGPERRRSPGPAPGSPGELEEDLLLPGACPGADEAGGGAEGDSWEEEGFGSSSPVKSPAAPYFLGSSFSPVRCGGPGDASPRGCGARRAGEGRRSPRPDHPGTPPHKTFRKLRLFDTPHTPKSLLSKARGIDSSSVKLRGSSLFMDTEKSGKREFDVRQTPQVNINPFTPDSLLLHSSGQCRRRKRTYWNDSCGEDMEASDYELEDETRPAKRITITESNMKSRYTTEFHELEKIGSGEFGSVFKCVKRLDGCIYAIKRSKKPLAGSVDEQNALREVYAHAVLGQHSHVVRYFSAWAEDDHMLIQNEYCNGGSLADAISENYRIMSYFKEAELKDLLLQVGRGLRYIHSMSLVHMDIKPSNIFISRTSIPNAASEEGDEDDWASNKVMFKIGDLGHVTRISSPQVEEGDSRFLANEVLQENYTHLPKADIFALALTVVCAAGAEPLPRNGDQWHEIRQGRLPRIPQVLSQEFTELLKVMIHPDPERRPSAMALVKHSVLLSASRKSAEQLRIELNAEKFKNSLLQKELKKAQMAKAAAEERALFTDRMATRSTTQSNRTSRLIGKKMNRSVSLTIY

[20] = target: G2/mitotic-specific cyclin-B1 (Homo sapiens, UniProt P14635); assay: HeLa cell cycle G2/M accumulation – FACS, mechanism study for Wee1 degradation inhibitor project, late-stage follow-up, panel member Cyclin B Degradation (AID 2088)
Chain of G2/mitotic-specific cyclin-B1 (P14635 whole entry): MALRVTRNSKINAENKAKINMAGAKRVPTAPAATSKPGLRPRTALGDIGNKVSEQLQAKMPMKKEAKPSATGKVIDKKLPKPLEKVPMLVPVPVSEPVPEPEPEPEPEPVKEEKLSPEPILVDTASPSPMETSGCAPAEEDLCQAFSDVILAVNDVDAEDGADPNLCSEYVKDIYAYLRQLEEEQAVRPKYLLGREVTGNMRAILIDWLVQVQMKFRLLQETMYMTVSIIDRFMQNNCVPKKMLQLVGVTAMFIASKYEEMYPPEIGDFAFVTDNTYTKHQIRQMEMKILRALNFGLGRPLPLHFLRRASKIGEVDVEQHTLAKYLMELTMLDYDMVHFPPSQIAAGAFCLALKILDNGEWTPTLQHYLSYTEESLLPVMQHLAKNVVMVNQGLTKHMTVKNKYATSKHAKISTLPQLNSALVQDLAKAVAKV

[21] = target: Melanin-concentrating hormone receptor 1 (Homo sapiens, UniProt Q99705); assay: Late-stage fluorescence-based counterscreen for antagonists of the G-protein coupled receptor 7 (GPR7): cell-based dose response assay to identify antagonists of the melanin-concentrating hormone receptor 1 (MCHR1). [Related pubchem assays (depositor defined):AID1861, AID1880, AID1952, AID2148, AID2251, AID2257, AID485339]; type: functional;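 note: stimulated with 30 nM MCH peptide agonist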
Chain of Melanin-concentrating hormone receptor 1 (Q99705 whole entry): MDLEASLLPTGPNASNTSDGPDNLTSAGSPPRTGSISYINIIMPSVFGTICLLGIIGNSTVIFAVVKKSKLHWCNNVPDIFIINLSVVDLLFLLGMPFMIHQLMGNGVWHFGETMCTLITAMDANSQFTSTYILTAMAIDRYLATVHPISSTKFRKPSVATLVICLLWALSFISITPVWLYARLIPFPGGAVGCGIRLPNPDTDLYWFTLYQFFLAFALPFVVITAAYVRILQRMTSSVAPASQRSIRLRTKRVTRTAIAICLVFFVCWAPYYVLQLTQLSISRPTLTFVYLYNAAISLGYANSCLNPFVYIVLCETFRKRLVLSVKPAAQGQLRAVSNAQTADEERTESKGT

[22] = target: T6, Neuropeptides B/W receptor type 1 (Homo sapiens, UniProt P48145); assay: human NPBW1 receptor blockade, IC50 – cell-based, fluorescence, dose response, late-stage follow-up (AID 463251); type: functional
T6 sequence (P48145 whole entry): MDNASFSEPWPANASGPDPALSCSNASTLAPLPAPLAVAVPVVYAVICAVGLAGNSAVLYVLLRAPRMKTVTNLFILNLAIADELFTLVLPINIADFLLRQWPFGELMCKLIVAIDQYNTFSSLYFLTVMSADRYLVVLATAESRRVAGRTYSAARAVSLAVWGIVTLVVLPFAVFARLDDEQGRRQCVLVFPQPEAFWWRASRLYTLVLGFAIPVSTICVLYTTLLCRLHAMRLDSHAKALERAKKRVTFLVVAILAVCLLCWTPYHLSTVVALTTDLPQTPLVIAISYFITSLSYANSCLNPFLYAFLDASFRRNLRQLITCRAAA

[23] = NIH-3T3 fibroblast cytotoxicity, dose response, cytotoxicity control, cell-based, fluorescence, Alamar Blue, secondary assay (AID 2327); type: functional;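 note: NIH-3T3 mouse fibroblasts cultured with fluconazole at 8 µg/mL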
[24] = fluconazole-exposed Candida albicans growth modulators – fluorescence, retest, confirmation (AID 2467); type: functional, cell-based
[25] = target: T7, Serine/threonine-protein phosphatase (Candida dubliniensis (strain CD36 / CBS 7987 / NCPF 3949 / NRRLY-17841) (Yeast), UniProt B9W6M3); assay: blockers of CaCl2-induced CDRE-lacZ signaling – S. cerevisiae, luminescence, secondary, dose response (AID 2388); type: functional, cell-based;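 note: yeast reporter cells carrying a calcineurin-responsive lacZ construct stimulated with calcium chloride; luminescent beta-galactosidase reporter signal in whole cells rather than isolated phosphatase activity; potency for inhibition where a drop in reporter signal means calcineurin blockade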
T7 sequence (B9W6M3 whole entry): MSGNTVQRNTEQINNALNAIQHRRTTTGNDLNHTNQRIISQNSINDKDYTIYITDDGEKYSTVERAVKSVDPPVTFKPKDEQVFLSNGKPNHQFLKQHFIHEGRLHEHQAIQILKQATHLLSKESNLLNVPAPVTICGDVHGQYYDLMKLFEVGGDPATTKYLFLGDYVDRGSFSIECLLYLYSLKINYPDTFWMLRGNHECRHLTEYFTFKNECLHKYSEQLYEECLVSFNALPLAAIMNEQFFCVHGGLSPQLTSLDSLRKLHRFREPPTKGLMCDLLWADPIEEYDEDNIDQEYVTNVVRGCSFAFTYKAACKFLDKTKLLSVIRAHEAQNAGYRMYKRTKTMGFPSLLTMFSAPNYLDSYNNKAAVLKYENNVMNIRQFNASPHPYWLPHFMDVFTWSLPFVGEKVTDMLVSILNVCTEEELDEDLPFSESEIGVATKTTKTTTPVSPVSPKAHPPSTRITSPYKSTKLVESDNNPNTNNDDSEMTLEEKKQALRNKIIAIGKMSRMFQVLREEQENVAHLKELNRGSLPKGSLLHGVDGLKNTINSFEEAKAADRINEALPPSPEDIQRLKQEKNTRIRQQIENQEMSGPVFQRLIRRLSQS

[26] = target: T8, Kappa-type opioid receptor (Homo sapiens, UniProt P41145); type: functional
T8 sequence (P41145 whole entry): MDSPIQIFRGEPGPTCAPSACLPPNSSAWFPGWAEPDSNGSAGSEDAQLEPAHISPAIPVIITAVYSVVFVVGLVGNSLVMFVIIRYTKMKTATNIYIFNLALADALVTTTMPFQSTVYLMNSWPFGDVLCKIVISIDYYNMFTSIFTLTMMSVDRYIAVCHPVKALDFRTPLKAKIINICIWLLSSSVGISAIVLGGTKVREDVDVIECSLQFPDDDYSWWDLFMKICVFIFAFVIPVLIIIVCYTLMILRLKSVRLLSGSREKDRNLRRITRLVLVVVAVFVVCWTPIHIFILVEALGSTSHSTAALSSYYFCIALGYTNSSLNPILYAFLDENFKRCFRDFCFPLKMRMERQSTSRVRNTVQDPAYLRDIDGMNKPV

Beta-galactosidase [27] = target: T9, Beta-galactosidase (Escherichia coli, UniProt Q8VNN2); type: functional
T9 sequence (Q8VNN2 whole entry): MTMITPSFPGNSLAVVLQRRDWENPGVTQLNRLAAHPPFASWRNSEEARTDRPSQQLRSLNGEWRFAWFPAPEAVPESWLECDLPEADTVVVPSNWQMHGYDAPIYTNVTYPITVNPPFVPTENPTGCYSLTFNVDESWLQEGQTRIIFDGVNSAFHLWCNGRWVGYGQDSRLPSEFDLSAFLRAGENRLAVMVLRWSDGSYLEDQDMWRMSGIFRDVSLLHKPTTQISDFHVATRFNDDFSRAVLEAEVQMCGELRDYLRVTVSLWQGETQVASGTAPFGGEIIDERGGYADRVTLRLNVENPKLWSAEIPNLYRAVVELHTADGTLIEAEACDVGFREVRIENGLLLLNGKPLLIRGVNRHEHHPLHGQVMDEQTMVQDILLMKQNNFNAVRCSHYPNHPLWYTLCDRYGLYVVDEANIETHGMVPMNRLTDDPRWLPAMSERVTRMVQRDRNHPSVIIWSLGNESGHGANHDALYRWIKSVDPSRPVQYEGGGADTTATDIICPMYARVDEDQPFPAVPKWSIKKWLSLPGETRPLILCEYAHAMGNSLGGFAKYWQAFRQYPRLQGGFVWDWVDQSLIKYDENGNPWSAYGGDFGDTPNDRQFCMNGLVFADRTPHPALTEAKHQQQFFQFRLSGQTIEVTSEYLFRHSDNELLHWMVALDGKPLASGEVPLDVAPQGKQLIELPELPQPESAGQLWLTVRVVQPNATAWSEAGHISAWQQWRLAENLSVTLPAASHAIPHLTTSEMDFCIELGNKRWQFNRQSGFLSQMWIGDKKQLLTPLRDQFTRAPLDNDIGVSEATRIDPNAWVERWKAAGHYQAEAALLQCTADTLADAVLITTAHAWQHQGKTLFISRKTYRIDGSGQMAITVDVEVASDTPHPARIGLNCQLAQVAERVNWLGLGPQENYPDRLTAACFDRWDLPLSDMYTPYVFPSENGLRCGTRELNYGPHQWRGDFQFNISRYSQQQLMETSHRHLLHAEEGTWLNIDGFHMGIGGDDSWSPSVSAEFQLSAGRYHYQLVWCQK

[28] = target: T8, Kappa-type opioid receptor; type: functional; remark: listed apart in the source
Nonstructural protein 1 = Nonstructural protein 1 (Influenza A virus, UniProt Q194T2); type: functional, Influenza A virus (A/California/07/2009(H1N1))
Chain of Nonstructural protein 1 (Q194T2 whole entry): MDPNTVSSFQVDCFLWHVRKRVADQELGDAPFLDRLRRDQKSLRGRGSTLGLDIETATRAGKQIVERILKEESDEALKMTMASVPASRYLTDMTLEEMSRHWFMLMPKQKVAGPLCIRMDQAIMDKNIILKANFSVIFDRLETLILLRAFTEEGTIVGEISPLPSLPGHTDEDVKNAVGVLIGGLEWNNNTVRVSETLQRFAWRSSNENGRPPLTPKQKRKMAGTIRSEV

[29] = target: Heat shock protein HSP 90-alpha (Homo sapiens, UniProt P07900); type: functional, organism-based
Vero = assay: viability of Vero cells under compound – cytotoxicity control for flavivirus capping enzyme inhibitors (AID 588742); type: functional; conditions: Chlorocebus sabaeus
INS1 = assay: INS-1E survival protection against cytokine death – cell-based, luminescence, retest, dose response (AID 449756); type: functional; conditions: Rattus norvegicus;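 note: cell death triggered by IL-1 beta plus TNF-alpha plus IFN-gamma mixture; protective hits raise ATP signal compared with cytokine alone wells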
[30] = target: ATP-dependent molecular chaperone HSP82 (Candida albicans (strain WO-1) (Yeast), UniProt C4YTQ8); assay: steroid-induced GRE reporter decrease in yeast – S. cerevisiae, luminescence, Hsp90 inhibitor project, dose response (AID 2400); type: functional, cell-based;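 note: beta-galactosidase luminescence from glucocorticoid response element reporter as proxy for Hsp90 function; inhibitor potency where signal loss means Hsp90 inhibition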
[31] = mammalian cell viability loss – Alamar Blue, dry powder, cytotoxicity control for antifungal single agent project, dose response (AID 602188); type: functional, cell-based
Beta-galactosidase [32] = target: T9, Beta-galactosidase; assay: Dose response counterscreen for EBI2 assay utilizing the enzyme, b-galactosidase.; type: functional

## CCOC(=O)c1c(C)nc2cc(C)ccn12
Cells [1]
  EC50: > 350 µM (not active)
Cells [2]
  EC50: > 350 µM (not active)
HeLa
  AC50: 69.7 µM (active)
Salmon testes DNA
  AC50: 285 µM (active)
Cells [3]
  IC50: 28.4 µM (active)

## CCOC(=O)c1ccc2c(c1)C1C=CCC1C(C(=O)O)N2 (configuration not stated)
[4]
  IC50: 2.18 µM (active)
Bcl-2-like protein 10
  IC50: 1.08 µM (active)
[5]
  IC50: 95.4 µM (active)
[6]
  IC50: 27 µM (active)
Large T antigen
  IC50: 14.2 µM (active)
[7]
  IC50: > 1.56 µM (inactive)
[8]
  IC50: > 100 µM (not active)
[9]
  IC50: 5.56 µM (active)
[10]
  IC50: 14.7 µM (active)
[11]
  IC50: > 10 µM (not active)
[12]
  IC50: 0.997 µM (active)
[13]
  IC50: 10.2 µM (active)
[14]
  IC50: 9.87 µM (active)

## N#Cc1ccc(Nc2nc(-c3ccc(O)cc3O)cs2)cc1C(F)(F)F
[15]
  IC50: > 50 µM (not active)
[16]
  IC50: 13.5 µM (not active)
[17]
  AC50: 4.98 µM (active)
[18]
  IC50: > 20 µM (inactive)
[19]
  EC50: 9.59 µM (active)

## CCCCSc1nc(O)c2c(n1)CCC2
Neutrophil collagenase
  IC50: > 39.8 µM (active)
Collagenase 3
  IC50: > 39.8 µM (active)

## Cc1cccc(OCC(=O)Nc2cc(C)nn2-c2nc(C)cc(=O)[nH]2)c1
Wee1-like protein kinase
  EC50: > 16.6 µM (active)
[20]
  EC50: > 49.7 µM (inactive)

## CCOc1ccc(Oc2cnn(-c3ccc(C)cc3)c(=O)c2Cl)cc1
[21]
  IC50: 18.2 µM (inactive)
[22]
  IC50: 6.3 µM (active)

## C/C(=N\NC(=O)c1cc2ccccc2cc1O)c1ccccn1
[23]
  EC50: > 150 µM (inactive)
[24]
  EC50: 1.02 µM (active)
[25]
  EC50: > 180 µM (inactive)
[26]
  IC50: 2.14 µM (active)
Beta-galactosidase [27]
  EC50: > 31.5 µM (inactive)
[28]
  IC50: > 32 µM
Nonstructural protein 1
  IC50: 3.77 µM (active)
[29]
  AC50: 6.63 µM (active)
Vero
  CC50: 1.93 µM (active)
INS1
  AC50: 0.958 µM (active)
[30]
  EC50: 4.08 µM (active)
[31]
  AC50: 0.729 µM (active)
Beta-galactosidase [32]
  IC50: 136 µM (inactive)
